The values below come from US11213529B2, “Salt of substituted urea derivative and use thereof in medicine” (SUNSHINE LAKE PHARMA CO. LTD., priority 2017, dated 2022).

The nature of series [1]: Pharmacokinetics experiments of the salts of compound (I), oral capsules. In kind it is in vivo, Beagle dogs. The protocol:
The free base 1-(5-(tert-butyl)isoxazol-3-yl)-3-(4-((4-(3-morpholinopropoxy)phenyl) ethynyl)phenyl)urea, various salts or crystalline forms thereof were filled into capsules for oral administration respectively. Male Beagle dogs (6-10 kg) were grouped randomly, each group has 3, one was administered with free base by oral, others with various salts or crystalline forms thereof by oral at a dosage of 5 mg/kg. Blood samples were collected at 0.25, 0.5, 1.0, 2.0, 4.0, 6.0, 8.0, 12 and 24 hours after the administration. Standard curve was plotted based on concentrations of the samples in a suitable range, the concentrations of test compounds in plasma samples were determined by using Agilent 6430 LC-MS/MS under MRM mode, and quantitative analysis was performed. Pharmacokinetic parameters were calculated according to drug concentration-time curve using a noncompartmental method by WinNonLin 6.3 software.

The conditions of series [2]: for Purity/%: HPLC. From the text: Samples were taken at fifth and tenth day, appearance was observed and purity was detected by HPLC.
The conditions of series [3]: for Appearance / Purity/%: illumination 4500±500 lx, UV; for Purity/%: HPLC.
The mark [4] stands for this setting: male Beagle dogs, oral capsule, 5 mg/kg, plasma.
[5] abbreviates: High humidity (25° C., RH 90% ± 5%), 0 day.
The mark [6] stands for this setting: High humidity (25° C., RH 90% ± 5%), 5 days.
[7] abbreviates: High humidity (25° C., RH 90% ± 5%), 10 days.
The mark [8] stands for this setting: High temperature (60° C. ± 2° C.), 0 day.
Setting [9] is: High temperature (60° C. ± 2° C.), 5 days.
Where [10] appears, read: High temperature (60° C. ± 2° C.), 10 days.
Setting [11] is: dog, male Beagle dogs, oral capsule, 5 mg/kg, plasma.

Read-outs that look alike come from different tables or passages of the source.

Regarding `CC(C)(C)c1cc(NC(=O)Nc2ccc(C#Cc3ccc(OCCCN4CCOCC4)cc3)cc2)no1.O=S(=O)(O)c1ccccc1` [Benzene sulfonate crystaline form I], the absorption result in series [1] (beagle dogs, oral 5 mg/kg) is “faster”. Moreover, the “exposure level compared with the free base” value in series [1] (beagle dogs, oral 5 mg/kg) is listed as “higher”. Besides, the AUCINF in series [1] (setting [4]) amounted to 592 ng·h/mL. Besides, in series [1] (setting [4]), the AUClast amounted to 575 ng·h/mL. Moreover, the Cmax in series [1] (setting [4]) came to 92.3 ng/mL. Besides, the MRTINF in series [1] (setting [4]) is 6.55 h. In addition, the T1/2 in series [1] (setting [4]) is recorded as 5.26 h. For the same compound, the Tmax in series [1] (setting [4]) is 1 h. Also, the Appearance result in series [2] (setting [5]), in series [2] (setting [6]), in series [2] (setting [7]), in series [2] (setting [8]), in series [2] (setting [9]) and in series [2] (setting [10]) was “yellow” in each case. The Appearance result in series [3] (0 day), in series [3] (5 days) and in series [3] (13 days) was “yellow” throughout. For the same compound, the Purity/% in series [2] (setting [5]) is 98.61%; in series [2] (setting [6]), 98.59%; in series [2] (setting [7]), 98.59%; in series [2] (setting [8]), 98.61%; in series [2] (setting [9]), 98.64%; in series [2] (setting [10]), 98.61%. Further, the Purity/% in series [3] (0 day) is reported as 98.61%; in series [3] (5 days) it was 98.67%; in series [3] (13 days), 98.71%. Also, the Hygroscopic weight gain/% in series [2] (setting [6]) is 0.388%; in series [2] (setting [7]), 1.100%. Further, the hygroscopicity characteristics entry in series [2] (from weight gain under high humidity for 10 days) is “slightly hygroscopicity (less than 2% but no less than 0.2%)”. Further, the “change of appearance and purity” value in series [2] (high humidity (25° C., RH 90%±5%)) is recorded as “have not been changed distinctly”; in series [2] (high temperature (60° C.±2° C.)) it was “have not been changed distinctly”; in series [3] (illumination), “have not been changed distinctly”.
Take `Br.CC(C)(C)c1cc(NC(=O)Nc2ccc(C#Cc3ccc(OCCCN4CCOCC4)cc3)cc2)no1` [Hydrobromide crystaline form I]: in series [1] (setting [4]), the AUCINF was 225 ng·h/mL, the AUClast was 401 ng·h/mL, the Cmax worked out at 36.4 ng/mL and the MRTINF is given as 8.54 h. Further, in series [1] (setting [4]), the T1/2 came to 6.64 h and the Tmax was determined as 1.33 h.
For the compound `CC(C)(C)c1cc(NC(=O)Nc2ccc(C#Cc3ccc(OCCCN4CCOCC4)cc3)cc2)no1` [Free base, 1-(5-(tert-butyl)isoxazol-3-yl)-3-(4-((4-(3-morpholinopropoxy)phenyl)ethynyl)phenyl)urea], in series [1] (setting [11]), the AUC(0-inf) was 423 ng·h/mL, the AUC(0-t) came to 389 ng·h/mL, the MRT inf worked out at 7.52 h and the half-life was 5.95 h. Further, in series [1] (dog, male Beagle dogs, oral capsule, 5 mg/kg, plasma, read-out: Cmax), the Cmax is 60.9 ng/mL. For the same compound, in series [1] (dog, male Beagle dogs, oral capsule, 5 mg/kg, plasma, read-out: Tmax), the Tmax turned out to be 1.67 h.
Regarding `CC(C)(C)c1cc(NC(=O)Nc2ccc(C#Cc3ccc(OCCCN4CCOCC4)cc3)cc2)no1.Cl` [Hydrochloride crystaline form I], in series [1] (setting [4]), the AUCINF came out at 371 ng·h/mL, the AUClast was found to be 358 ng·h/mL, the Cmax was determined as 51.2 ng/mL and the MRTINF turned out to be 6.5 h. For the same compound, in series [1] (setting [4]), the T1/2 worked out at 4.86 h and the Tmax worked out at 1.67 h.
